Results from patent US6613799B1, “Liposoluble platinum (II) complex and preparation thereof” (priority 1985, dated 2003).
Read-outs that look alike come from different tables or passages of the source. Marks after values point to notes of the source that are not given here.

Columns and labels:
L 1210 leukemia cells = assay type: in vivo
[1] = cited from earlier work
[2] = 11.6 mg/kg × 2 i.p., dispersion in lipiodol, oleic acid moiety two times stoichiometric amount, Table III
[3] = L1210-CDF1 mice, dispersion in lipiodol
[4] = 31.5 mg/kg × 2 i.p. in lipiodol, Table III
[5] = 157 mg/kg × 2 i.p. in lipiodol, Table III
[6] = 787 mg/kg, administered only one time, i.p. in lipiodol, Table III
[7] = 57 mg/kg × 2 i.p. in lipiodol, Table III
[8] = 171 mg/kg × 2 i.p. in lipiodol, Table III
[9] = 855 mg/kg × 2 i.p. in lipiodol, Table III
[10] = 25 mg/kg × 2 i.p. in lipiodol, Table I
[11] = 126 mg/kg × 2 i.p. in lipiodol, Table I
[12] = 630 mg/kg × 2 i.p. in lipiodol, Table I

For `N.N.[Cl][Pt][Cl]` [CDDP, Cis-dichlorodiammine platinum (II), reference compound], the “CR (mice completely cured / total mice tested)” value (L 1210 leukemia cells; [2]) was 0/5, the “T/C (mean survival time treated / control)” value (L 1210 leukemia cells; [2]) was 182 and the “MST (mean survival time)” value (L 1210 leukemia cells; 11.6 mg/kg × 2 i.p., dispersion in lipiodol, oleic acid moiety two times stoichiometric amount, Table III control MST 8.5) was 15.5. The “T/C (mean survival time treated / control)” value (L 1210 leukemia cells; 58 mg/kg × 2 i.p., dispersion in lipiodol, oleic acid moiety two times stoichiometric amount, Table III) was “Toxic”, the “MST (mean survival time)” value (L 1210 leukemia cells; 58 mg/kg × 2 i.p., dispersion in lipiodol, oleic acid moiety two times stoichiometric amount, Table III control MST 8.5) was 4.0 and the “complete recovery at rather low dose” value (L 1210 leukemia cells; [3]) was “complete recovery is not observed”.
With `NC1CCCCC1N.[Cl][Pt][Cl]` (stereo not drawn) [DACHP, Dichloro cyclohexane-1,2-diammine platinum (II), reference compound] the “T/C (mean survival time treated / control)” value (L 1210 leukemia cells; 22 mg/kg × 2 i.p., dispersion in lipiodol, oleic acid moiety two times stoichiometric amount, Table III) was “Toxic”, the “MST (mean survival time)” value (L 1210 leukemia cells; 22 mg/kg × 2 i.p., dispersion in lipiodol, oleic acid moiety two times stoichiometric amount, Table III control MST 8.5) was 7.0 and the “T/C (mean survival time treated / control)” value (L 1210 leukemia cells; 110 mg/kg × 2 i.p., dispersion in lipiodol, oleic acid moiety two times stoichiometric amount, Table III) was “Toxic”. For the same compound, the “MST (mean survival time)” value (L 1210 leukemia cells; 110 mg/kg × 2 i.p., dispersion in lipiodol, oleic acid moiety two times stoichiometric amount, Table III control MST 8.5) was 4.0, the “toxicity when administered in a high dose” value (L 1210 leukemia cells; high dose, L1210-CDF1 mice, i.p. in lipiodol) was “high toxicity” and the “complete recovery at rather low dose” value (L 1210 leukemia cells; [3]) was “complete recovery is not observed”.
For `CCCCCCCCCCCCCCCCCCCC(=O)[O][Pt][O]C(=O)CCCCCCCCCCCCCCCCCCC.NC1CCCCC1N` [DACHPt(II)-(Ara)2], the “T/C (mean survival time treated / control)” value (L 1210 leukemia cells; 73 mg/kg × 2 i.p. in lipiodol, Table II) was 211, the “MST (mean survival time)” value (L 1210 leukemia cells; 73 mg/kg × 2 i.p. in lipiodol, Table II control MST 9.5) was 20 and the “T/C (mean survival time treated / control)” value (L 1210 leukemia cells; 225 mg/kg × 2 i.p. in lipiodol, Table II) was 600. The “MST (mean survival time)” value (L 1210 leukemia cells; 225 mg/kg × 2 i.p. in lipiodol, Table II control MST 9.5) was 60, the “T/C (mean survival time treated / control)” value (L 1210 leukemia cells; 1127 mg/kg × 2 i.p. in lipiodol, Table II) was “Toxic” and the “MST (mean survival time)” value (L 1210 leukemia cells; 1127 mg/kg × 2 i.p. in lipiodol, Table II control MST 9.5) was 7.0.
For `CCCCCCCCCCCCCCCCCCCCCC(=O)[O][Pt][O]C(=O)CCCCCCCCCCCCCCCCCCCCC.NC1CCCCC1N` [DACHPt(II)-(Beh)2], the “T/C (mean survival time treated / control)” value (L 1210 leukemia cells; 80 mg/kg × 2 i.p. in lipiodol, Table III) was 212, the “MST (mean survival time)” value (L 1210 leukemia cells; 80 mg/kg × 2 i.p. in lipiodol, Table III control MST 8.5) was 18.0 and the “T/C (mean survival time treated / control)” value (L 1210 leukemia cells; 1195 mg/kg, administered only one time, i.p. in lipiodol, Table III) was “Toxic”. For the same compound, the “MST (mean survival time)” value (L 1210 leukemia cells; 1195 mg/kg, administered only one time, i.p. in lipiodol, Table III control MST 8.5) was 2.0*^1.
With `CCCCCCCCCC(=O)[O][Pt]1([O]C(=O)CCCCCCCCC)[NH]C2CCCCC2[NH]1` (stereo not drawn) [DACHPt(II)-(Cap)2] the “CR (mice completely cured / total mice tested)” value (L 1210 leukemia cells; [4]) was 0/6, the “T/C (mean survival time treated / control)” value (L 1210 leukemia cells; [4]) was 133 and the “MST (mean survival time)” value (L 1210 leukemia cells; 31.5 mg/kg × 2 i.p. in lipiodol, Table III control MST 8.5) was 12.0. The “CR (mice completely cured / total mice tested)” value (L 1210 leukemia cells; [5]) was 2/6, the “T/C (mean survival time treated / control)” value (L 1210 leukemia cells; [5]) was “Toxic” and the “CR (mice completely cured / total mice tested)” value (L 1210 leukemia cells; [6]) was 0/6. The “T/C (mean survival time treated / control)” value (L 1210 leukemia cells; [6]) was 111 and the “MST (mean survival time)” value (L 1210 leukemia cells; 787 mg/kg, administered only one time, i.p. in lipiodol, Table III control MST 8.5) was 10.0*^1.
For `CCCCCCCCCCCC(=O)[O][Pt][O]C(=O)CCCCCCCCCCC.NC1CCCCC1N` [DACHPt(II)-(Lau)2], the “CR (mice completely cured / total mice tested)” value (L 1210 leukemia cells; [7]) was 0/5, the “T/C (mean survival time treated / control)” value (L 1210 leukemia cells; [7]) was 141 and the “MST (mean survival time)” value (L 1210 leukemia cells; 57 mg/kg × 2 i.p. in lipiodol, Table III control MST 8.5) was 12.0. For the same compound, the “CR (mice completely cured / total mice tested)” value (L 1210 leukemia cells; [8]) was 0/5, the “T/C (mean survival time treated / control)” value (L 1210 leukemia cells; [8]) was 165 and the “MST (mean survival time)” value (L 1210 leukemia cells; 171 mg/kg × 2 i.p. in lipiodol, Table III control MST 8.5) was 14.0. The “CR (mice completely cured / total mice tested)” value (L 1210 leukemia cells; [9]) was 3/5, the “T/C (mean survival time treated / control)” value (L 1210 leukemia cells; [9]) was 471 and the “MST (mean survival time)” value (L 1210 leukemia cells; 855 mg/kg × 2 i.p. in lipiodol, Table III control MST 8.5) was 40.0.
With `CCCCCCCCCCCCCCCCCCCCCCCC(=O)[O][Pt][O]C(=O)CCCCCCCCCCCCCCCCCCCCCCC.NC1CCCCC1N` [DACHPt(II)-(Lig)2] the “T/C (mean survival time treated / control)” value (L 1210 leukemia cells; 50 mg/kg × 2 i.p. in lipiodol, Table I) was 150, the “MST (mean survival time)” value (L 1210 leukemia cells; 50 mg/kg × 2 i.p. in lipiodol, Table I control MST 10) was 10 and the “T/C (mean survival time treated / control)” value (L 1210 leukemia cells; 250 mg/kg × 2 i.p. in lipiodol, Table I) was 100. For the same compound, the “MST (mean survival time)” value (L 1210 leukemia cells; 250 mg/kg × 2 i.p. in lipiodol, Table I control MST 10) was 10, the “T/C (mean survival time treated / control)” value (L 1210 leukemia cells; 1250 mg/kg × 2 i.p. in lipiodol, Table I) was 105 and the “MST (mean survival time)” value (L 1210 leukemia cells; 1250 mg/kg × 2 i.p. in lipiodol, Table I control MST 10) was 10.5. The “CR (mice completely cured / total mice tested)” value (L 1210 leukemia cells; mouse, in vivo) was 0/6.
For `CCCCCCCCCCCCCC(=O)[O][Pt][O]C(=O)CCCCCCCCCCCCC.NC1CCCCC1N` [DACHPt(II)-(Myr)2], the “T/C (mean survival time treated / control)” value (L 1210 leukemia cells; 33 mg/kg × 2 i.p. in lipiodol, Table I) was 150, the “MST (mean survival time)” value (L 1210 leukemia cells; 33 mg/kg × 2 i.p. in lipiodol, Table I control MST 10) was 15.0 and the “T/C (mean survival time treated / control)” value (L 1210 leukemia cells; 833 mg/kg, administered only one time, i.p. in lipiodol, Table I) was “Toxic”. The “MST (mean survival time)” value (L 1210 leukemia cells; 833 mg/kg, administered only one time, i.p. in lipiodol, Table I control MST 10) was 8.0*^1.
In the case of `CCCCCCCC/C=C\CCCCCCCC(=O)[O-].CCCCCCCC/C=C\CCCCCCCC(=O)[O-].NC1CCCCC1N.[Pt+2]` [DACHPt(II)-(Ole)2, Cyclohexane-1,2-diammine Platinum (II) Dioleate], the “CR (mice completely cured / total mice tested)” value (L 1210 leukemia cells; [10]) is reported as 0/5, the “T/C (mean survival time treated / control)” value (L 1210 leukemia cells; [10]) is reported as 130 and the “MST (mean survival time)” value (L 1210 leukemia cells; 25 mg/kg × 2 i.p. in lipiodol, Table I control MST 10) is reported as 13.0. The “CR (mice completely cured / total mice tested)” value (L 1210 leukemia cells; [11]) was 0/6, the “T/C (mean survival time treated / control)” value (L 1210 leukemia cells; [11]) was 170 and the “MST (mean survival time)” value (L 1210 leukemia cells; 126 mg/kg × 2 i.p. in lipiodol, Table I control MST 10) was 17.0. For the same compound, the “CR (mice completely cured / total mice tested)” value (L 1210 leukemia cells; [12]) was 2/7 and the “T/C (mean survival time treated / control)” value (L 1210 leukemia cells; [12]) was “Toxic”.
With `CCCCCCCCCCCCCCCC(=O)[O][Pt][O]C(=O)CCCCCCCCCCCCCCC.NC1CCCCC1N` [DACHPt(II)-(Pal)2] the “T/C (mean survival time treated / control)” value (L 1210 leukemia cells; 40 mg/kg × 2 i.p. in lipiodol, Table I) was 110, the “MST (mean survival time)” value (L 1210 leukemia cells; 40 mg/kg × 2 i.p. in lipiodol, Table I control MST 10) was 11 and the “T/C (mean survival time treated / control)” value (L 1210 leukemia cells; 198 mg/kg × 2 i.p. in lipiodol, Table I) was 115. The “MST (mean survival time)” value (L 1210 leukemia cells; 198 mg/kg × 2 i.p. in lipiodol, Table I control MST 10) was 11.5, the “T/C (mean survival time treated / control)” value (L 1210 leukemia cells; 991 mg/kg × 2 i.p. in lipiodol, Table I) was 170 and the “MST (mean survival time)” value (L 1210 leukemia cells; 991 mg/kg × 2 i.p. in lipiodol, Table I control MST 10) was 17. The “CR (mice completely cured / total mice tested)” value (L 1210 leukemia cells; mouse, in vivo) was 0/6.
For `CCCCCCCCCCCCCCCCCC(=O)[O][Pt][O]C(=O)CCCCCCCCCCCCCCCCC.NC1CCCCC1N` [DACHPt(II)-(Ste)2], the “T/C (mean survival time treated / control)” value (L 1210 leukemia cells; 71 mg/kg × 2 i.p. in lipiodol, Table III) was 212, the “MST (mean survival time)” value (L 1210 leukemia cells; 71 mg/kg × 2 i.p. in lipiodol, Table III control MST 8.5) was 18.0 and the “T/C (mean survival time treated / control)” value (L 1210 leukemia cells; 1060 mg/kg, administered only one time, i.p. in lipiodol, Table III) was “Toxic”. The “MST (mean survival time)” value (L 1210 leukemia cells; 1060 mg/kg, administered only one time, i.p. in lipiodol, Table III control MST 8.5) was 7.0*^1 and the “CR (mice completely cured / total mice tested)” value (L 1210 leukemia cells; mouse, in vivo) was 2/5.
For `N.N.O=C([O-])C1(C(=O)[O-])CCC1.[Pt+2]` [carboplatin, cis-diammine-1,1-cyclobutane-dicarboxylate platinum (II)], the water solubility [1] is listed as 17800 µg/mL.
In the case of `NCC1(CN)CCCCC1.O=S(=O)([O-])[O-].[Pt+2]` [spiroplatin, cis-1,1-di-(aminomethyl) cyclohexane platinum (II) sulfate], the water solubility [1] is given as 1000 µg/mL.
